Measurements as given in US6355799B1, “Substituted benzene compounds, process for their preparation, and herbicidal and defoliant compositions containing them” (ISK Americas Incorporated, priority 1997, dated 2002).

Legend:
Format in all cases: in vivo
[1] = tested on: field corn (Zea mays L., var. Dekalb 535, CORN); assay: Post-emerge test, crop safety; details: rating scale 0-100 (0 no damage, 100 complete death), 14 days after application
Method in brief: (§1)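 Plants grown in 10 cm pots of sandy loam mix received acetone-dissolved compounds through a moving flat-fan nozzle. Doses ranged from 15 to 1000 g ai/ha. Pre-emerge pots were seeded one day earlier, post-emerge pots 8–21 days earlier. Fourteen days on, each pot was graded 0–100 for damage.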

[2] = tested on: upland rice (Oryza sp., var. Tebonnet, RICE); assay: Post-emerge test, crop safety; details: rating scale 0-100 (0 no damage, 100 complete death), 14 days after application
Method in brief: as §1

[3] = tested on: common ragweed (Ambrosia artemisizfolia L., AMBEL); assay: Pre-emerge test, greenhouse herbicide activity screening; details: pre-emerge, 14 days after application, rating scale 0-100
Method in brief: (§2)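 Rating: 0–100 visual injury, 14 DAA. Application: acetone, 187 l/ha, 15–1000 g ai/ha, flat-fan track sprayer with nozzle 40–45 cm above soil or canopy. Post-emerge runs used 0.25% v/v surfactant on 2–3 leaf plants.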

[4] = tested on: lambsquarters (Chenopodium album, CHEAL); assay: as above; details: pre-emerge, 14 days after application, rating scale 0-100
Method in brief: as §2

[5] = tested on: large crabgrass (Digitaria sanguinalis, DIGSA); assay: as above; details: pre-emerge, 14 days after application, rating scale 0-100
Method in brief: as §2

[6] = tested on: johnsongrass (Sorghum halepense, SORHA); assay: as above; details: pre-emerge, 14 days after application, rating scale 0-100
Method in brief: as §2

[7] = tested on: ivyleaf morningglory (Ipomoea hederacea, IPOHE); assay: as above; details: pre-emerge, 14 days after application, rating scale 0-100
Method in brief: as §2

[8] = tested on: barnyardgrass (Echinochloa crus-galli, ECHCG); assay: as above; details: pre-emerge, 14 days after application, rating scale 0-100
Method in brief: as §2

[9] = tested on: velvetleaf (Abutilon theophrasti, ABUTH); assay: as above; details: pre-emerge, 14 days after application, rating scale 0-100
Method in brief: as §2

[10] = tested on: sicklepod (Cassia obtusifolia, CASOB); assay: as above; details: pre-emerge, 14 days after application, rating scale 0-100
Method in brief: as §2

[11] = tested on: green foxtail (Setaria viridis, SETVI); assay: as above; details: pre-emerge, 14 days after application, rating scale 0-100
Method in brief: as §2

[12] = tested on: field corn (Zea mays L., var. Dekalb 535, CORN); assay: Pre-emerge test, crop safety; details: pre-emerge, 14 days after application, rating scale 0-100
Method in brief: (§3)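 Sandy loam pots; pre-emerge: sown 1 d pre-spray, surface-watered after, then bottom-watered. Post-emerge: sown 8–21 d before, 2–3 leaf stage, + 0.25% v/v NIS, bottom-watered. Acetone, 187 l/ha track spray, 15–1000 g ai/ha. 0–100 injury score, day 14.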

[13] = tested on: upland rice (Oryza sp., var. Tebonnet, RICE); assay: Pre-emerge test, crop safety; details: pre-emerge, 14 days after application, rating scale 0-100
Method in brief: as §3

[14] = tested on: lambsquarters (Chenopodium album, CHEAL); assay: Post-emerge test, greenhouse herbicide activity screening; details: rating scale 0-100 (0 no damage, 100 complete death), 14 days after application
Method in brief: (§4)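 Fourteen days after spraying, crop and weed injury was graded visually from 0, no effect, to 100, every plant dead. Test substances were dissolved in acetone and applied at 15–1000 g ai/ha with a flat-fan nozzle. Application was either pre-emergence, one day after sowing, or post-emergence at the 2–3 leaf stage.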

[15] = tested on: large crabgrass (Digitaria sanguinalis, DIGSA); assay: as above; details: rating scale 0-100 (0 no damage, 100 complete death), 14 days after application
Method in brief: as §4

[16] = tested on: johnsongrass (Sorghum halepense, SORHA); assay: as above; details: rating scale 0-100 (0 no damage, 100 complete death), 14 days after application
Method in brief: as §4

[17] = tested on: ivyleaf morningglory (Ipomoea hederacea, IPOHE); assay: as above; details: rating scale 0-100 (0 no damage, 100 complete death), 14 days after application
Method in brief: as §4

[18] = tested on: redroot pigweed (Amaranthus retroflexus, AMARE); assay: as above; details: rating scale 0-100 (0 no damage, 100 complete death), 14 days after application
Method in brief: as §4

[19] = tested on: barnyardgrass (Echinochloa crus-galli, ECHCG); assay: as above; details: rating scale 0-100 (0 no damage, 100 complete death), 14 days after application
Method in brief: as §4

[20] = tested on: velvetleaf (Abutilon theophrasti, ABUTH); assay: as above; details: rating scale 0-100 (0 no damage, 100 complete death), 14 days after application
Method in brief: as §4

[21] = tested on: sicklepod (Cassia obtusifolia, CASOB); assay: as above; details: rating scale 0-100 (0 no damage, 100 complete death), 14 days after application
Method in brief: as §4

[22] = tested on: green foxtail (Setaria viridis, SETVI); assay: as above; details: rating scale 0-100 (0 no damage, 100 complete death), 14 days after application
Method in brief: as §4

[23] = tested on: redroot pigweed (Amaranthus retroflexus, AMARE); assay: Pre-emerge test, greenhouse herbicide activity screening; details: pre-emerge, 14 days after application, rating scale 0-100
Method in brief: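 Compounds in acetone were track-sprayed at 15-1000 g ai/ha (187 l/ha) on sandy loam pots: pre-emerge one day after seeding, post-emerge at 2-3 leaf stage with 0.25% v/v non-ionic surfactant. Phytotoxicity was rated 14 days later on a 0 (no damage) to 100 (complete death) scale.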

CCOC(=O)C(Cl)Cc1c(C)c(Cl)cc(F)c1-n1c(=O)cc(C(F)(F)F)n(C)c1=O (stereo not shown) [14-54]
60: Post-emerge Herbicidal Activity, phytotoxicity rating CHEAL ([14]; Rate 250 g ai/ha) | Post-emerge Herbicidal Activity, phytotoxicity rating ABUTH ([20]; Rate 63 g ai/ha)
5: Post-emerge phytotoxicity rating CORN (crop damage) ([1]; Rate 63 g ai/ha)
85: phytotoxicity rating AMARE ([23]; 250 g ai/ha)
70: phytotoxicity rating ABUTH ([9]; 250 g ai/ha)
10: Post-emerge phytotoxicity rating RICE (crop damage) ([2]; Rate 63 g ai/ha) | Post-emerge phytotoxicity rating RICE (crop damage) ([2]; Rate 250 g ai/ha) | phytotoxicity rating CHEAL ([4]; 63 g ai/ha) | phytotoxicity rating CASOB ([10]; 250 g ai/ha) | Post-emerge Herbicidal Activity, phytotoxicity rating DIGSA ([15]; Rate 250 g ai/ha) | Post-emerge Herbicidal Activity, phytotoxicity rating SETVI ([22]; Rate 63 g ai/ha) | Post-emerge Herbicidal Activity, phytotoxicity rating SETVI ([22]; Rate 250 g ai/ha)
100: phytotoxicity rating CHEAL ([4]; 250 g ai/ha)
80: phytotoxicity rating SETVI ([11]; 250 g ai/ha) | Post-emerge Herbicidal Activity, phytotoxicity rating IPOHE ([17]; Rate 250 g ai/ha) | Post-emerge Herbicidal Activity, phytotoxicity rating ABUTH ([20]; Rate 250 g ai/ha)
30: phytotoxicity rating DIGSA ([5]; 250 g ai/ha) | phytotoxicity rating SORHA ([6]; 250 g ai/ha) | Post-emerge Herbicidal Activity, phytotoxicity rating IPOHE ([17]; Rate 63 g ai/ha) | Post-emerge Herbicidal Activity, phytotoxicity rating ECHCG ([19]; Rate 63 g ai/ha) | Post-emerge Herbicidal Activity, phytotoxicity rating ECHCG ([19]; Rate 250 g ai/ha) | Post-emerge Herbicidal Activity, phytotoxicity rating CASOB ([21]; Rate 250 g ai/ha)
40: phytotoxicity rating IPOHE ([7]; 250 g ai/ha) | Post-emerge Herbicidal Activity, phytotoxicity rating AMARE ([18]; Rate 63 g ai/ha)
15: Post-emerge phytotoxicity rating CORN (crop damage) ([1]; Rate 250 g ai/ha) | phytotoxicity rating RICE ([13]; 250 g ai/ha)
0: phytotoxicity rating AMBEL ([3]; 63 g ai/ha) | phytotoxicity rating AMBEL ([3]; 250 g ai/ha) | phytotoxicity rating DIGSA ([5]; 63 g ai/ha) | phytotoxicity rating SORHA ([6]; 63 g ai/ha) | phytotoxicity rating IPOHE ([7]; 63 g ai/ha) | phytotoxicity rating ECHCG ([8]; 63 g ai/ha) | phytotoxicity rating ECHCG ([8]; 250 g ai/ha) | phytotoxicity rating ABUTH ([9]; 63 g ai/ha) | phytotoxicity rating CASOB ([10]; 63 g ai/ha) | phytotoxicity rating CORN ([12]; 63 g ai/ha) | phytotoxicity rating CORN ([12]; 250 g ai/ha) | phytotoxicity rating RICE ([13]; 63 g ai/ha) | Post-emerge Herbicidal Activity, phytotoxicity rating DIGSA ([15]; Rate 63 g ai/ha) | Post-emerge Herbicidal Activity, phytotoxicity rating SORHA ([16]; Rate 63 g ai/ha) | Post-emerge Herbicidal Activity, phytotoxicity rating SORHA ([16]; Rate 250 g ai/ha) | Post-emerge Herbicidal Activity, phytotoxicity rating CASOB ([21]; Rate 63 g ai/ha)
20: phytotoxicity rating SETVI ([11]; 63 g ai/ha) | Post-emerge Herbicidal Activity, phytotoxicity rating CHEAL ([14]; Rate 63 g ai/ha) | phytotoxicity rating AMARE ([23]; 63 g ai/ha)
50: Post-emerge Herbicidal Activity, phytotoxicity rating AMARE ([18]; Rate 250 g ai/ha)
